# Assay results as given in article PMC12720774, “Detergents alter the stability and lipid binding properties of the CD1d immunoreceptor” (Protein Science : A Publication of the Protein Society, 2025).
# Where “and” joins values, the source holds several entries; their conditions need not be identical. Equal values may be shown once. Where a name gives a salt, the structure may show the parent alone. Read-outs that look alike come from different tables or passages of the source.
# Assays:
# [1] = approximate, cited from earlier work
# hCD1d = hCD1d (Homo sapiens, UniProt P15813+P61769); experiment: Nano differential scanning fluorimetry (nanoDSF) thermal stability; type: binding; parameters: TEV protease cleavage site ENLYFQS (C); BirA biotinylation site (C); His7 (C); made in house; host or cells: TurboCHO cells (GenScript); details: for ΔTm aveage: Figure 5C, nanoDSF, hCD1d with detergent; for ΔT m (NanoDSF): T m difference between hCD1d in the absence and presence of 1000 μM detergent, 1 μM hCD1d; for ΔT m, detergent class summary: approximate; for detergent concentration at which hCD1d appeared to unfold: disappearance of inflection point in ∂(F350/F330)/∂T
# hCD1d, sequence (P61769+P15813 fused): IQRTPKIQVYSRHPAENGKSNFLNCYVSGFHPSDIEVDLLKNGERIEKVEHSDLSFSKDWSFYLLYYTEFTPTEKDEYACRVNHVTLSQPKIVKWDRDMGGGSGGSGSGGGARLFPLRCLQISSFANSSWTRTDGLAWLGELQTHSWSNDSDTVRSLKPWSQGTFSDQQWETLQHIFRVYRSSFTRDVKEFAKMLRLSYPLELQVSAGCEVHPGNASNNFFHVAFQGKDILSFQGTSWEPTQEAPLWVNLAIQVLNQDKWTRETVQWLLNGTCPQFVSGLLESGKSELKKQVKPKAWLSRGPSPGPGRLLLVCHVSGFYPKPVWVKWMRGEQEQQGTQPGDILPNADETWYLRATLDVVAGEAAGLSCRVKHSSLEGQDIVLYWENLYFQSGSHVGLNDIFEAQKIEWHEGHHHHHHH
# Description: We next sought to probe the ability of each detergent to influence the thermal stability of hCD1d. NanoDSF has been previously applied to measure lipid/detergent‐induced thermal stability changes in target proteins (Cecchetti et al., [2021]; Kotov et al., [2019]), but has not yet been applied to ligand binding to CD1. NanoDSF measures the ITF ratio (F 350 nm/F 330 nm) of proteins as a function of temperature to extract thermodynamic parameters. Given that ligand binding typically shifts the melting temperature of proteins, the effect of a ligand on protein stability can be approximated with the ΔT m value (the difference in T m with and without excess ligand) (Cecchetti et al., [2021]; Kotov et al., [2019]). We found all detergents tested to destabilize hCD1d, albeit to different degrees, with ΔT m values ranging from −0.8 to −14.2°C (Figures 4, S4, and Table 1).
# Nano differential scanning fluorometry (nanoDSF) was performed using a Prometheus NT.48 (NanoTemper Technologies). Purified hCD1d at 1 μM in 1X PBS pH 7.4 was loaded into nanoDSF grade standard capillaries (NanoTemper Technologies) and exposed to temperatures ranging from 20 to 95°C with a thermal ramping rate of 1°C/min. Excitation power was set to 50%. The ratio of intrinsic fluorescence emission (F 350 nm/F 330 nm) was monitored. Melting temperatures (T m) were obtained from fitting the first derivative plots in the Prometheus NT.48 Software. The experiments were performed in triplicate, and data are presented as the mean ± standard deviation (n = 3).
# For experiments with most detergents, prior to data acquisition, hCD1d and detergent or lipid samples were incubated at 37°C overnight (~12 h) to simulate in vitro and in vivo loading conditions. […] For 18:1 LPC experiments: nanoDSF spectra were acquired in the absence and presence of 18:1 LPC in 1X PBS pH 7.4 at 25°C.
# [2] = target: T1, CSP 319‐328/HLA‐B*08:01/hβ2M complex (Homo sapiens, UniProt P01889, A93T/A95T/D138N/E176V/E187T/K202T/Q94N/R180D/S35A/V36M/Y33D/Y91F); experiment: MST with peptide/HLA complex; type: binding; details: for MST normalized fluorescence signal (Fnorm): peptide/HLA with ODG, replicates
# T1 construct: made in house
# Description: (§1) To determine whether detergent effects were specific to hCD1d, we performed analogous ITF, MST, and nanoDSF experiments with a peptide/HLA complex. HLA‐B*08:01, presenting the Plasmodium falciparum derived peptide […] ([…]), was selected as a representative model system since the peptide antigen contains hydrophilic solvent‐exposed residues in the antigen‐binding groove (Frooman et al., [2025]). Although structurally similar to that of hCD1d, HLA‐B*08:01 shares low sequence identity (Figure S10a). […] By nanoDSF, ODG caused minimal destabilization of either complex (ΔT m≈−0.2 to −0.8°C; Figure S10f). […] We posit that lipid‐specific unloading effects of detergent are due to either hydrophobic residues in the antigen binding groove (detergent‐CD1d interactions) and/or the hydrophobic nature of the lipid antigen (detergent‐lipid interactions).
# (§2) For comparison with peptide/HLA molecules, we prepared recombinant CSP 319‐328/HLA‐B*08:01/hβ2M complex using in vitro refolding methods fully described previously (Frooman et al., [2025]). The peptide sequence for CSP 319–328 is […]. This peptide was chosen since it contains Lys, Gln, and Asp residues predicted to be solvent‐exposed in the HLA‐B*08:01 binding groove (Frooman et al., [2025]).
# MST experiments with peptide/HLA molecules and detergents were performed using an analogous protocol.
# [3] = target: T1, CSP 319‐328/HLA‐B*08:01/hβ2M complex; experiment: nanoDSF with peptide/HLA complex; type: binding; details: for nanoDSF melting temperature of peptide/HLA: peptide/HLA with ODG, replicates
# Description: as §1, §2
# NanoDSF experiments with peptide/HLA molecules and detergents were performed using an analogous protocol.
# [4] = weight/volume, ref Anatrace catalogue
compound,measurement,setting,value
"C[C@H](CCC(=O)NCCC[N+](C)(C)CCCS(=O)(=O)[O-])[C@H]1CC[C@H]2[C@@H]3[C@H](O)C[C@@H]4C[C@H](O)CC[C@]4(C)[C@H]3C[C@H](O)[C@]12C [CHAPS, 3‐((3‐cholamidopropyl) dimethylammonio)‐1‐propanesulfonate]",CMC,[1]; ref Anatrace catalogue,8000 µM
same,CMC,[1]; [4],0.49%
same,ΔTm aveage,hCD1d,-1.3 °C
same,ΔT m (NanoDSF),hCD1d,−1.3 ± 0.4 °C
same,"ΔT m, detergent class summary",hCD1d,−1 to −2 °C
"CCCCCCCCCCCCCCCC[N+](C)(C)C [CTAB, hexadecyltrimethylammonium bromide]",CMC,[1]; ref Sigma Aldrich catalogue,920 µM
same,CMC,"[1]; weight/volume, ref Sigma Aldrich catalogue",0.033%
same,ΔTm aveage,hCD1d,-14.17 °C
same,ΔT m (NanoDSF),hCD1d,−14.2 ± 0.8 °C
same,"ΔT m, detergent class summary",hCD1d,−12 to −15 °C
same,detergent concentration at which hCD1d appeared to unfold,hCD1d,> 200 µM
"C[C@H](CCC(=O)O)[C@H]1CC[C@H]2[C@@H]3CC[C@@H]4C[C@H](O)CC[C@]4(C)[C@H]3C[C@H](O)[C@]12C [Deoxycholate, sodium deoxycholate]",ΔTm aveage,hCD1d,-10 °C
same,ΔT m (NanoDSF),hCD1d,−10.0 ± 0.3 °C
same,ΔT m (NanoDSF),hCD1d; listed as Sodium deoxycholate,−10.0 ± 0.3 °C
same,detergent concentration at which hCD1d appeared to unfold,hCD1d,> 200 µM
"CCCCCCCCCCCC[N+](C)(C)[O-] [LDAO, lauryldimethylamine‐N‐oxide]",CMC,[1]; ref Anatrace catalogue,1000 µM
same,CMC,[1]; [4],0.023%
same,ΔTm aveage,hCD1d,-13.43 °C
same,ΔT m (NanoDSF),hCD1d,−13.4 ± 0.1 °C
same,"ΔT m, detergent class summary",hCD1d,−12 to −15 °C
same,detergent concentration at which hCD1d appeared to unfold,hCD1d,> 200 µM
"CCCCCCCCO[C@@H]1O[C@H](CO)[C@@H](O)[C@H](O)[C@H]1O [ODG, n‐octyl‐β‐D‐glucopyranoside]",Kd,"[2]; 100 nM AF647‐labeled peptide/HLA, 25°C, read-out: K D (MST), peptide/HLA",3.97 ± 0.29 mM
same,MST normalized fluorescence signal (Fnorm),[2]; concentration 1.52588e-6 (unit not given),823.198 and 827.76 and 828.811
same,MST normalized fluorescence signal (Fnorm),[2]; concentration 3.05176e-6 (unit not given),822.943 and 827.867 and 830.525
same,MST normalized fluorescence signal (Fnorm),[2]; concentration 6.10352e-6 (unit not given),822.246 and 827.784 and 829.217
same,MST normalized fluorescence signal (Fnorm),[2]; concentration 1.2207e-5 (unit not given),822.018 and 826.127 and 829.204
same,MST normalized fluorescence signal (Fnorm),[2]; concentration 2.44141e-5 (unit not given),822.327 and 826.016 and 829.378
same,MST normalized fluorescence signal (Fnorm),[2]; concentration 4.88281e-5 (unit not given),822.531 and 826.781 and 828.529
same,MST normalized fluorescence signal (Fnorm),[2]; concentration 9.76563e-5 (unit not given),821.832 and 827.649 and 828.743
same,MST normalized fluorescence signal (Fnorm),[2]; concentration 0.000195313 (unit not given),821.404 and 825.833 and 828.951
same,MST normalized fluorescence signal (Fnorm),[2]; concentration 0.000390625 (unit not given),819.989 and 827.51 and 830.305
same,MST normalized fluorescence signal (Fnorm),[2]; concentration 0.00078125 (unit not given),822.464 and 828.227 and 831.061
same,MST normalized fluorescence signal (Fnorm),[2]; concentration 0.0015625 (unit not given),823.907 and 829.452 and 833.281
same,MST normalized fluorescence signal (Fnorm),[2]; concentration 0.003125 (unit not given),828.308 and 833.352 and 835.76
same,MST normalized fluorescence signal (Fnorm),[2]; concentration 0.00625 (unit not given),834.384 and 840.244 and 840.854
same,MST normalized fluorescence signal (Fnorm),[2]; concentration 0.0125 (unit not given),835.617 and 843.292 and 844.526
same,MST normalized fluorescence signal (Fnorm),[2]; concentration 0.025 (unit not given),837.125 and 844.883 and 846.326
same,MST normalized fluorescence signal (Fnorm),[2]; concentration 0.05 (unit not given),838.274 and 844.594 and 846.629
same,"ΔT m (nanoDSF), peptide/HLA","[3]; absence vs maximum concentration of detergent, 1 μM peptide/HLA",−0.2 to −0.8 °C
same,nanoDSF melting temperature of peptide/HLA,[3]; concentration 1.495 (unit not given),55.47 and 55.54 and 54.62
same,nanoDSF melting temperature of peptide/HLA,[3]; concentration 2.991 (unit not given),55.33 and 55.34 and 55.32
same,nanoDSF melting temperature of peptide/HLA,[3]; concentration 5.981 (unit not given),55.24 and 55.48 and 55.35
same,nanoDSF melting temperature of peptide/HLA,[3]; concentration 11.96 (unit not given),55.41 and 55.18 and 55.09
same,nanoDSF melting temperature of peptide/HLA,[3]; concentration 23.93 (unit not given),55.51 and 54.95 and 55.4
same,nanoDSF melting temperature of peptide/HLA,[3]; concentration 47.85 (unit not given),55.44 and 54.77 and 55.24
same,nanoDSF melting temperature of peptide/HLA,[3]; concentration 95.7 (unit not given),55.2 and 55.36 and 55.21
same,nanoDSF melting temperature of peptide/HLA,[3]; concentration 191.4 (unit not given),55.5 and 55.26 and 55.22
same,nanoDSF melting temperature of peptide/HLA,[3]; concentration 382.8 (unit not given),55.54 and 55.43 and 55.19
same,nanoDSF melting temperature of peptide/HLA,[3]; concentration 765.6 (unit not given),55.29 and 55.05 and 54.95
same,nanoDSF melting temperature of peptide/HLA,[3]; concentration 1531 (unit not given),55.13 and 55.03 and 54.92
same,nanoDSF melting temperature of peptide/HLA,[3]; concentration 3063 (unit not given),54.91 and 54.34 and 54.94
same,nanoDSF melting temperature of peptide/HLA,[3]; concentration 6125 (unit not given),53.87 and 53.91
same,nanoDSF melting temperature of peptide/HLA,[3]; concentration 12500 (unit not given),51.99 and 52.51 and 52.34
same,nanoDSF melting temperature of peptide/HLA,[3]; concentration 25000 (unit not given),50.57 and 50.47 and 50.7
same,nanoDSF melting temperature of peptide/HLA,[3]; concentration 50000 (unit not given),50.26 and 49.92 and 50.62
same,CMC,[1]; ref Anatrace catalogue,"18,000 μM"
same,CMC,[1]; [4],0.53%
same,ΔTm aveage,hCD1d,-0.83 °C
same,ΔT m (NanoDSF),hCD1d,−0.8 ± 0.4 °C
same,"ΔT m (nanoDSF), lipid/hCD1d","hCD1d; absence vs maximum concentration of detergent, 1 μM endo/hCD1d (Figure S10)",−0.2 to −0.8 °C
same,"ΔT m, detergent class summary",hCD1d,−1 to −2 °C
"CCCCCCCCCCCCOS(=O)(=O)O [SDS, sodium dodecyl sulfate]",CMC,[1]; ref Anatrace catalogue,1990 µM
same,CMC,[1]; [4],0.057%
same,ΔTm aveage,hCD1d,-13.07 °C
same,ΔT m (NanoDSF),hCD1d,−13.1 ± 0.7 °C
same,"ΔT m, detergent class summary",hCD1d,−12 to −15 °C
same,detergent concentration at which hCD1d appeared to unfold,hCD1d,> 200 µM
Tween 80,CMC,[1]; ref Anatrace catalogue,12 µM
same,CMC,[1]; [4],0.0016%
same,ΔTm aveage,hCD1d,-9.7 °C
same,ΔT m (NanoDSF),hCD1d,-9.7 ± 0.4 °C
same,"ΔT m, detergent class summary",hCD1d,−8 to −10 °C
